According to ChEMBL document CHEMBL3885861, “Open TG-GATES”:

Species: Rattus norvegicus
Test: Open TG-GATES - Regimen: Daily Repeat
Assay type: toxicity, organism-based, Sprague-Dawley
Set-up: regimen Daily Repeat, gender Male, age 6 weeks
Conditions: in vivo, po, route gavage; for TP / gamma-GTP / ALP / ALT / AST / BUN / CRE / Cl / DBIL / GLC / IP / K / LDH / Na / PL / RALB / TBIL / TC / TG / Ca: tissue Plasma; for APTT / Bas / Eos / Fbg / Hb / Ht / Lym / MCH / MCHC / MCV / Mono / Neu / PT / Plat / RBC / Ret / WBC: tissue Blood; for KIDNEY_L / KIDNEY_R / KIDNEY_TOTAL: tissue Kidney; for LIVER: tissue Liver
[1] = 300 mg/kg, […], dose level Middle, time 28 day
[2] = 1000 mg/kg, 72 h, dose level High, time 3 day
[3] = 1000 mg/kg, […], dose level High, time 7 day
[4] = 1000 mg/kg, […], dose level High, time 14 day
[5] = 1000 mg/kg, […], dose level High, time 28 day

COC(=O)C1=C(C)NC(C)=C(C(=O)OC)C1c1ccccc1[N+](=O)[O-] [NIFEDIPINE]
TP [1]: 6.1 g/dL | gamma-GTP [1]: 1 IU/L | TERMINAL_BW [2]: 202 g | APTT [2]: 21.7 s | Bas [2]: 0% | Eos [2]: 0.8% | Fbg [2]: 252.6 mg/dL | Hb [2]: 14 g/dL | Ht [2]: 42.2% | Lym [2]: 76.8% | MCH [2]: 20.5 pg | MCHC [2]: 33.2% | MCV [2]: 61.8 fL | Mono [2]: 3.2% | Neu [2]: 18.2% | PT [2]: 14.1 s | Plat [2]: 134.4 x10_4/uL | RBC [2]: 683.2 x10_4/ul | Ret [2]: 7.3% | WBC [2]: 97.2 x10_2/uL | KIDNEY_L [2]: 0.9 g | KIDNEY_R [2]: 0.9 g | KIDNEY_TOTAL [2]: 1.7 g | ALP [2]: 1290.2 IU/L | ALT [2]: 41.6 IU/L | AST [2]: 67.6 IU/L | BUN [2]: 14 mg/dL | CRE [2]: 0.2 mg/dL | Cl [2]: 107.8 meq/L | DBIL [2]: 0.016 mg/dL | GLC [2]: 153 mg/dL | IP [2]: 6.1 mg/dL | K [2]: 4.1 meq/L | LDH [2]: 69.6 IU/L | Na [2]: 143.6 meq/L | PL [2]: 123 mg/dL | RALB [2]: 2.5 g/dL | TBIL [2]: 0.032 mg/dL | TC [2]: 67.2 mg/dL | TG [2]: 54 mg/dL | TP [2]: 5.3 g/dL | gamma-GTP [2]: 0.8 IU/L | TERMINAL_BW [3]: 238.1 g | TERMINAL_BW [4]: 309.6 g | TERMINAL_BW [5]: 388.3 g | APTT [3]: 16.8 s | Bas [3]: 0.4% | Eos [3]: 0.8% | Fbg [3]: 253.4 mg/dL | Hb [3]: 14.1 g/dL | Ht [3]: 42.6% | Lym [3]: 71.4% | MCH [3]: 20.2 pg | MCHC [3]: 33.1% | MCV [3]: 61 fL | Mono [3]: 2.8% | Neu [3]: 23.8% | PT [3]: 14.2 s | Plat [3]: 142.6 x10_4/uL | RBC [3]: 701.2 x10_4/ul | Ret [3]: 5.9% | WBC [3]: 121.8 x10_2/uL | APTT [4]: 21.1 s | Bas [4]: 0.4% | Eos [4]: 0.6% | Fbg [4]: 267.4 mg/dL | Hb [4]: 14.3 g/dL | Ht [4]: 42.8% | Lym [4]: 73.8% | MCH [4]: 20.6 pg | MCHC [4]: 33.5% | MCV [4]: 61.4 fL | Mono [4]: 3% | Neu [4]: 21.4% | PT [4]: 13.8 s | Plat [4]: 120.3 x10_4/uL | RBC [4]: 697.2 x10_4/ul | Ret [4]: 5.8% | WBC [4]: 117.1 x10_2/uL | APTT [5]: 21.7 s | Bas [5]: 0% | Eos [5]: 0.8% | Fbg [5]: 252.6 mg/dL | Hb [5]: 14 g/dL | Ht [5]: 42.2% | Lym [5]: 76.8% | MCH [5]: 20.5 pg | MCHC [5]: 33.2% | MCV [5]: 61.8 fL | Mono [5]: 3.2% | Neu [5]: 18.2% | PT [5]: 14.1 s | Plat [5]: 134.4 x10_4/uL | RBC [5]: 683.2 x10_4/ul | Ret [5]: 7.3% | WBC [5]: 97.2 x10_2/uL | KIDNEY_L [3]: 1 g | KIDNEY_R [3]: 0.9 g | KIDNEY_TOTAL [3]: 1.9 g | KIDNEY_L [4]: 1.2 g | KIDNEY_R [4]: 1.2 g | KIDNEY_TOTAL [4]: 2.4 g | KIDNEY_L [5]: 1.4 g | KIDNEY_R [5]: 1.3 g | KIDNEY_TOTAL [5]: 2.7 g | LIVER [3]: 12.1 g | LIVER [4]: 15.5 g | LIVER [5]: 17.5 g | ALP [3]: 1072.4 IU/L | ALT [3]: 40.4 IU/L | AST [3]: 68.2 IU/L | BUN [3]: 15 mg/dL | CRE [3]: 0.2 mg/dL | Cl [3]: 105.8 meq/L | DBIL [3]: 0.016 mg/dL | GLC [3]: 155.6 mg/dL | IP [3]: 6.4 mg/dL | K [3]: 3.9 meq/L | LDH [3]: 86 IU/L | Na [3]: 144.2 meq/L | PL [3]: 129 mg/dL | RALB [3]: 2.7 g/dL | TBIL [3]: 0.028 mg/dL | TC [3]: 68.8 mg/dL | TG [3]: 70.6 mg/dL | TP [3]: 5.7 g/dL | gamma-GTP [3]: 1 IU/L | ALP [4]: 1620.8 IU/L | ALT [4]: 41.6 IU/L | AST [4]: 66.6 IU/L | BUN [4]: 18.6 mg/dL | CRE [4]: 0.2 mg/dL | Ca [4]: 11 mg/dL | Cl [4]: 104.2 meq/L | DBIL [4]: 0.012 mg/dL | GLC [4]: 172.8 mg/dL | IP [4]: 7.3 mg/dL | K [4]: 4 meq/L | LDH [4]: 51 IU/L | Na [4]: 143.4 meq/L | PL [4]: 161 mg/dL | RALB [4]: 2.8 g/dL | TBIL [4]: 0.018 mg/dL | TC [4]: 84.2 mg/dL | TG [4]: 101.8 mg/dL | TP [4]: 5.9 g/dL | gamma-GTP [4]: 1 IU/L | ALP [5]: 975.4 IU/L | ALT [5]: 40.2 IU/L | AST [5]: 64.4 IU/L | BUN [5]: 18.2 mg/dL | CRE [5]: 0.3 mg/dL | Ca [5]: 10.3 mg/dL | Cl [5]: 106.6 meq/L | DBIL [5]: 0.012 mg/dL | GLC [5]: 162.8 mg/dL | IP [5]: 5.8 mg/dL | K [5]: 3.7 meq/L | LDH [5]: 62.8 IU/L | Na [5]: 144.4 meq/L | PL [5]: 144 mg/dL | RALB [5]: 2.7 g/dL | TBIL [5]: 0.028 mg/dL | TC [5]: 73.6 mg/dL | TG [5]: 115.4 mg/dL | TP [5]: 6 g/dL | gamma-GTP [5]: 1 IU/L
